Experimental data from paper PMC9321663, “The DevTox Germ Layer Reporter Platform: An Assay Adaptation of the Human Pluripotent Stem Cell Test” (Toxics, 2022).
Like-named read-outs stand apart in the source and are kept apart here.

What was measured:
[1] = system: SOX17 (endoderm marker) in RUES2-GLR cells; assay: DevTox GLR-Endo assay: decrease in percent SOX17-positive cells (AEID 3094, Sox17_dn); conditions: for Hit Call: Table S2, SOX17-positive cells, cutoff 3*bmad; for HIT−CALL: tcpl plot AEID3094, COFF 20.3
Experimental: (§1) The total test chemical incubation period was 48 h.
(§2) Assay plate controls included non-differentiated pluripotent cells maintained in complete Essential 8 Flex medium (baseline control), endoderm differentiated cells (differentiation control), endoderm differentiated cells treated with DMSO (0.2%) (solvent control), and TGF-ß receptor inhibitor SB431542 (1 µM)-treated cells (developmental toxicant-positive control) (Figure S3). All experiments were completed with a minimum of four biological replicates (n = 4).
(§3) (Supplementary Materials).

RUES2-GLR cells = assay: in vitro; conditions: for Emax: Homo sapiens, read-out: Cell Count % Max Inhibition
Experimental: as §1, §2, §3

[2] = system: SOX17 (endoderm marker) in RUES2-GLR cells; assay: DevTox GLR-Endo assay: increase in percent SOX17-positive cells (AEID 3093, Sox17_up); format: cell-based, human; parameters: tp (winning model): unit not given here; conditions: for HIT−CALL: tcpl plot AEID3093, COFF 20.3; for Emax: Homo sapiens
Experimental: as §1, §3

[3] = system: SOX17 in H9 human ESC line; conditions: SOX17 half-maximal inhibition concentration; read-out: hPST IC50; cited from earlier work
H9 human ESC line = conditions: cited from earlier work
[4] = cited from earlier work; for Development Toxicant Classification: Table S2; for Classification: developmental toxicant classification (Teratogen / Non-Teratogen) of reference and training chemicals, ref DOI per chemical: 10.1093/toxsci/kft239, 10.1093/toxsci/kfaa014, 10.1177/026119290203000204, 10.1038/s41598-020-59542-x; for DT Class.: developmental toxicant classification
[5] = system: SOX2 (ectoderm and pluripotency marker) in RUES2-GLR cells; assay: DevTox GLR-Endo assay: increase in percent SOX2-positive cells (AEID 3095, Sox2_up); conditions: for MAX_MEAN: tcpl plot AEID3095, maximum mean response; for MAX_MED: tcpl plot AEID3095, maximum median response; for AC50 / Emax: Homo sapiens; for AC50: read-out: ga (winning model); for Emax: read-out: tp (winning model);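 as to all read-outs here: cells exposed to test chemicals for 48 h in total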
in vitro = conditions: human
Experimental: as §1, §2, §3

[6] = system: BRA (mesoderm marker) in RUES2-GLR cells; assay: DevTox GLR-Endo assay: increase in percent BRA-positive cells (AEID 3096, Bra_up); format: cell-based, human; conditions: for HIT−CALL: tcpl plot AEID3096, COFF 0.774; for MAX_MEAN: tcpl plot AEID3096, maximum mean response
Experimental: as §1, §3

[7] = Table S2, percent SOX17-positive cells, 48 h exposure
[8] = cytotoxicity half-maximal concentration
[9] = Homo sapiens, 48 h, read-out: DevTox-GLR Endo AC50 (µM), SOX17 half-maximal activity concentration, 48 h exposure
[10] = Homo sapiens, read-out: DevTox % Max Inhibition
[11] = Homo sapiens, read-out: MAX_MEAN
[12] = Homo sapiens, read-out: MAX_MED
[13] = Homo sapiens, read-out: ga (winning model), tcpl plot AEID3094, gain parameter of winning curve fit (log concentration, µM axis), hit calls only (converted)
[14] = Homo sapiens, read-out: tp (winning model)
[15] = tcpl plot AEID3093, maximum mean response, read-out: MAX_MEAN
[16] = tcpl plot AEID3093, maximum median response, read-out: MAX_MED

SMILES	Hit Call [1]	DevTox ACC [1, 7] [µM]	HIT−CALL [1]	HIT−CALL [2]	IC50 [3] [µM]	hPST TC50 (H9 human ESC line; [8]) [µM]	hPST TC50 (H9 human ESC line; hPST cytotoxicity) [µM]	Development Toxicant Classification [4]	DT Class. ([4]; chemicals common with hPST)	MAX_MEAN [5] [Percent Activity]	MAX_MED [5] [Percent Activity]	AC50 [1, 9] [µM]	Emax [1, 10] [%]	Emax [1, 11] [%]	Emax [1, 12] [%]	CC50 at 48 h (in vitro) [µM]	Emax (RUES2-GLR cells) [%]	Cell Count ACC (RUES2-GLR cells; human, 48 h) [µM]	Emax [2, 15] [%]	Emax [2, 16] [%]	other results
CC1=C(/C=C/C(C)=C/C=C/C(C)=C\C(=O)O)C(C)(C)CCC1	Positive	0.02117	1	0	0.2	140	140	Positive	Pos	47.5	48.5	–	–	–	–	–	–	–	–	–	SOX17 ACC relative to cytotoxic concentration (in words) [1]: below cytotoxic concentrations; DevTox % Max Inhibition ([1]; Table S2, percent SOX17-positive cells relative to DMSO): 100.964%; AC50 ([1]; read-out: DevTox-GLR Endo AC50, SOX17 half-maximal activity concentration, 48 h exposure): 0.16 µM; ga (winning model) ([1]; tcpl plot AEID3094, gain parameter of winning curve fit (log concentration, µM axis), hit calls only): −0.807; MAX_MEAN ([1]; tcpl plot AEID3094, maximum mean response): 101 Percent Activity; MAX_MED ([1]; tcpl plot AEID3094, maximum median response): 101 Percent Activity; tp (winning model) ([1]; tcpl plot AEID3094, top of winning curve fit (Hill or gain-loss), hit calls only): 100; Cell Count ACC (RUES2-GLR cells): 4.122 µM; Cell Count % Max Inhibition (RUES2-GLR cells; Table S2, cell count relative to DMSO): 97.7228%; CC50 (RUES2-GLR cells; read-out: DevTox-GLR Endo CC50, cell count half-maximal concentration, 48 h exposure): 10.2 µM; MAX_MEAN ([2]; tcpl plot AEID3093, maximum mean response): −11.9 Percent Activity; MAX_MED ([2]; tcpl plot AEID3093, maximum median response): −11.9 Percent Activity; Classification [4]: Teratogen; ga (winning model) ([5]; tcpl plot AEID3095, gain parameter of winning curve fit (log concentration, µM axis), hit calls only): 1.54; tp (winning model) ([5]; tcpl plot AEID3095, top of winning curve fit (Hill or gain-loss), hit calls only): 39.6
O=c1[nH]c(=O)n([C@H]2C[C@H](O)[C@@H](CO)O2)cc1Br [5-Bromo-2’-deoxyuridine]	Positive	0.4591	1	0	0.2	3.4	3.4	Positive	Pos	2.12	2.23	0.55	102	102	102	9.37	87.6	3.994	-2.88	-2.98	SOX17 ACC relative to cytotoxic concentration (in words) [1]: below cytotoxic concentrations; AC50 [1, 13]: 0.548 µM; Emax [1, 14]: 101%; Classification [4]: Teratogen; AC50 [5]: 13.2 µM; Emax [5]: 2.13%
Nc1nc2c(ncn2COCCO)c(=O)[nH]1 [Acyclovir]	Negative	–	0	0	> 200	–	–	–	–	2.09	0.473	–	7.79	8.36	7.79	–	7.77	>200	6.68	7.67	HIT−CALL [6]: 1; MAX_MEAN [6]: 0.981 Percent Activity; MAX_MED ([6]; tcpl plot AEID3096, maximum median response): 1.09 Percent Activity
Cn1c(=O)c2c(ncn2C)n(C)c1=O [Caffeine]	Negative	>200	0	0	> 400	–	–	–	–	0.413	0.416	–	9.41	6.68	9.41	> 200	10.3	>200	9.91	11	AC50 ([1]; Homo sapiens, 48 h, read-out: DevTox-GLR Endo AC50 (µM)): > 200 µM; HIT−CALL [6]: 1; MAX_MEAN [6]: 1.09 Percent Activity
CC/C(=C(/CC)c1ccc(O)cc1)c1ccc(O)cc1 [Diethylstilbestrol]	Positive	–	1	0	–	4.4	4.4	Positive	Pos	6.09	4.84	0.64	101	101	101	0.71	95.7	0.5959	6.93	6.73	AC50 [1, 13]: 0.644 µM; Emax [1, 14]: 101%; DevTox-GLR Endo ACC ([1]; activity concentration at cutoff, SOX17-positive cells, 48 h exposure): 0.54 µM; DevTox-GLR Endo CC (RUES2-GLR cells; human, 48 h): 0.60 µM; Classification [4]: Teratogen; DT Class. ([4]; chemicals common with quickPredict): Pos; AC50 [5]: 2.13 µM; Emax [5]: 3.84%
COc1cccc2c1C(=O)c1c(O)c3c(c(O)c1C2=O)C[C@@](O)(C(=O)CO)C[C@@H]3O[C@H]1C[C@H](N)[C@H](O)[C@H](C)O1 [Doxorubicin]	Positive	0.001242	1	1	–	<0.3	< 0.3	Positive	Pos	9.13	8.86	0.0019	–	–	–	0.0033	93.9	0.001329	50.4	51.7	AC50 [1, 13]: 0.00186 µM; tp (winning model) ([2]; tcpl plot AEID3093, top of winning curve fit, hit calls only): 48.7; AC50 [5]: 0.64 µM; Emax [5]: 19.8%
Nc1nc2ncc(CNc3ccc(C(=O)N[C@@H](CCC(=O)O)C(=O)O)cc3)nc2c(=O)[nH]1 [Folic Acid]	Negative	>200	0	0	39	84	84	–	–	0.885	0.515	> 200	16.4	13.8	16.4	> 200	13.7	>200	8.84	8.92	–
COc1cc2ncnc(Nc3ccc(F)c(Cl)c3)c2cc1OCCCN1CCOCC1 [Gefitinib]	–	4.584	–	0	–	10	10	–	–	5.99	4.85	5.75	–	102	101	6.6	–	5.08	10.5	7.83	AC50 [1, 13]: 5.75 µM; Emax [1, 14]: 101%; AC50 [5]: 6.35 µM; Emax [5]: 3.17%
CC(C)Cc1ccc(C(C)C(=O)O)cc1 (stereo not shown) [Ibuprofen]	Positive	–	1	0	> 200	–	–	–	–	0.944	0.561	–	23.9	24.3	23.9	–	22.2	122.424	11.6	11.9	Emax [1, 14]: 42.6%
CN1CCN2c3ccccc3Cc3ccccc3C2C1 (stereo not shown) [Mianserin]	Positive	–	1	0	–	60	60	Positive	Pos	4.94	5.45	34.9	101	101	101	33.6	97.7	18.6008	2.7	3.98	DevTox ACC ([1]; 48 h): 13.5618 µM; AC50 [1, 13]: 34.7 µM; Emax [1, 14]: 122%; Classification [4]: Teratogen; AC50 [5]: 85.1 µM; Emax [5]: 13.7%
